From publication PMC8761492 (Life Science Alliance, 2022)

Test system: SARS-CoV-2 B.1.1.7
Test: microbe, parasite or virus in culture
Format: cell-based
Conditions: Severe acute respiratory syndrome coronavirus 2, Caco-2, pretreated 2 h, 24 h, mean ± SEM

SMILES: CCC(CC)COC(=O)[C@H](C)N[P@](=O)(OC[C@H]1O[C@@](C#N)(c2ccc3c(N)ncnn23)[C@H](O)[C@@H]1O)Oc1ccccc1 [Remdesivir]
- IC50: 0.023 µM
